The text below walks through data of patent publication US20080103158A1, “METHODS FOR TREATING DELAYING THE PROGRESSION OF ALZHEIMER'S DISEASE WITH HETEROCYCLIC COMPOUNDS” (ZENYAKU KOGYO KABUSHIKI KAISHA, priority 2006, published 2008).

System in one data set: not listed separately
Description: preclinical study (safety).
Conditions: not given
`O=C1N=C2C=CC=CN2C12Cc1ccccc1C2` [Compound 1, spiro[imidazo[1,2-a]pyridin-2(3H)-one-3,2′-indan]]: the “safety in the preclinical study” value is given as “highly safe”.

System in another data set: not given
Assay: not given
Conditions: not given
In general, melting point refers to the temperature, or range, at which the solid turns liquid. On to `C/C=C/CC1(C/C=C/C)C(=O)N=C2N=CC=CN21` [Compound 55, 3,3-di(2-butenyl)imidazo[1,2-a]pyrimidin-2(3H)-one], for which the melting point is 149.5 °C (dec.).

In the case of `O=C1N=C2C=CC=CN2C12Cc1cccc(F)c1C2` (stereo not shown) [Compound 56, spiro[imidazo[1,2-a]pyridin-2(3H)-one-3,2′-(4′-fluoroindan)]], the melting point is 148 °C (dec.).

`COc1ccc2c(c1)CC1(C2)C(=O)N=C2C=CC=CN21` (stereo not shown) [Compound 57, spiro[imidazo[1,2-a]pyridin-2(3H)-one-3,2′-(5′-methoxyindan)]] registered a melting point of 150 to 152 °C. The same measure, in the same setting: under `O=C1N=C2C=CC=CN2C12Cc1ccc(I)cc1C2` (stereo not shown) [Compound 58, spiro[imidazo[1,2-a]pyridin-2(3H)-one-3,2′-(5′-iodoindan)]] stands 167 to 171 °C; under `N#Cc1cccc2c1CC1(C2)C(=O)N=C2C=CC=CN21` (stereo not shown) [Compound 59, spiro[imidazo[1,2-a]pyridin-2(3H)-one-3,2′-(4′-cyanoindan)]], 247.7 °C (dec.); under `O=C1N=C2c3ccccc3C=CN2C12Cc1ccccc1C2` [Compound 60, spiro[imidazo[2,1-a]isoquinolin-2(3H)-one-3,2′-indan]], 201 to 203 °C. Still for that read-out and setting: under `O=C1N=C2C=CC=CN2C12Cc1cc3nsnc3cc1C2` [Compound 61, spiro[imidazo[1,2-a]pyridin-2(3H)-one-3,2′-((1,2,5-thiadiazo)[4,5-c]indan)]] stands 86 to 88 °C.

Regarding `O=C1N=C2c3ccccc3C=CN2C12Cc1cc3nsnc3cc1C2` [Compound 62, spiro[imidazo[2,1-a]isoquinolin-2(3H)-one-3,2′-((1,2,5-thiadiazo)[4,5-c]indan)]], the melting point was 271.5 °C (dec.). Regarding `O=C1N=C2N=CC=CN2C12Cc1ccccc1C2` [Compound 63, spiro[imidazo[1,2-a]pyrimidin-2(3H)-one-3,2′-indan]], the melting point is 195.5 °C (dec.). With `O=C1N=C2C=CC=CN2C12Cc1ccc(C(F)(F)F)cc1C2` (stereo not shown) [Compound 64, spiro[imidazo[1,2-a]pyridin-2(3H)-one-3,2′-(5′-trifluoromethylindan)]], the melting point was in the range of 176.5 to 179.5 °C. Turning to `O=C1N=C2C=CC=CN2C12Cc1ccc3ccccc3c1C2` (stereo not shown) [Compound 65, spiro[imidazo[1,2-a]pyridin-2(3H)-one-3,2′-benzo[e]indan]], the melting point was 256 °C (dec.).

As to `O=C1N=C2C=CC=CN2C1(C1C=CCCC1)C1C=CCCC1` (stereo not shown) [Compound 67, 3,3-bis(2-cyclohexenyl)imidazo[1,2-a]pyridin-2(3H)-one], the melting point fell in the range of 245 to 247 °C.

The compound `C=CCC1(CC=C)C(=O)N=C2c3ccccc3C=CN21` [Compound 68, 3,3-diallylimidazo[2,1-a]isoquinolin-2(3H)-one] came in with a melting point of 108 to 110 °C. Turning to `O=C1N=C2C(OCc3ccccc3)=CC=CN2C12CC=CC2` [Compound 70, spiro[8-benzyloxyimidazo[1,2-a]pyridin-2(3H)-one-3,4′-(1′-cyclopentene)]], the melting point lay in the range of 178.5 to 180.5 °C. The same measure, in the same setting: under `O=C1N=C2CCCCN2C1(C1CCCCC1)C1CCCCC1` [Compound 72, 3,3-dicyclohexyl-5,6,7,8-tetrahydroimidazo[1,2-a]pyridin-2(3H)-one] stands 218 to 220 °C. The compound `CCCCC1(CCCC)C(=O)N=C2CCCCN21` [Compound 73, 3,3-dibutyl-5,6,7,8-tetrahydroimidazo[1,2-a]pyridin-2(3H)-one] registered a melting point of 35 to 40 °C. On the same count and under the same terms, under `O=C1N=C2C3=C(C=CN2C12CCCC2)CCCC3` [Compound 74, spiro[7,8,9,10-tetrahydroimidazo[2,1-a]isoquinolin-2(3H)-one-3,1′-cyclopentane]] stands 270.5 °C (dec.). The compound `O=C1N=C2c3ccccc3C=CN2C12CCCC2` [Compound 75, spiro[imidazo[2,1-a]isoquinolin-2(3H)-one-3,1′-cyclopentane]] registered a melting point of 164.5 to 167.5 °C.

As for `O=C1N=C2CCCCN2C12Cc1cc3ccccc3cc1C2` [Compound 76, spiro[5,6,7,8-tetrahydroimidazo[1,2-a]pyridin-2(3H)-one-3,2′-benzo[f]indan]], the melting point is 252.5 °C (dec.). For `O=C1N=C2CCCCN2C12Cc1ccccc1C2` [Compound 77, spiro[5,6,7,8-tetrahydroimidazo[1,2-a]pyridin-2(3H)-one-3,2′-indan]], the melting point was 276.5 °C (dec.). For the compound `O=C1N=C2C=CC=CN2C1(Cc1ccc(Cl)cc1)Cc1ccc(Cl)cc1` [Compound 78, 3,3-bis(4-chlorobenzyl)imidazo[1,2-a]pyridin-2(3H)-one], the melting point fell in the range of 293 to 296 °C. Same read-out and setting: as for `C=CCC1(CC=C)C(=O)N=C2C(OCC3CC3)=CC=CN21` [Compound 79, 8-cyclopropylmethyloxy-3,3-diallylimidazo[1,2-a]pyridin-2(3H)-one], the figure is 139 to 142 °C; as for `COC1=CC=CN2C1=NC(=O)C21CC=CC1` [Compound 82, spiro[8-methoxyimidazo[1,2-a]pyridin-2(3H)-one-3,4′-(1′-cyclopentene)]], 200 to 202 °C. Take `O=C1N=C2C(OCC3CC3)=CC=CN2C12CC=CC2` [Compound 83, spiro[8-cyclopropylmethyloxyimidazo[1,2-a]pyridin-2(3H)-one-3,4′-(1′-cyclopentene)]]: the melting point lay in the range of 134 to 137 °C.

For another data set, the system named is amyloid β deposition in the hippocampus. Kind of data set: Amyloid β deposition inhibitory activity: amyloid β immunohistochemistry of the hippocampus in senescene accelerated mice (SAMP8). The format is in vivo. The note with it: hippocampus immunohistochemistry. The protocol: Senescene accelerated mice (SAMP8) (male, 8 months old at the beginning of the study) were used for experiment. Approximately 0.1 mg/kg/day of Compound 1 was given in drinking water. Eight weeks after the dosing, the mouse brain was removed, Methacarn-fixed (methanol:chloroform:acetic acid=6:3:1), and paraffin-embedded. Then, sections of 8 μm in thickness were prepared using a microtome.
The sections were immunostained with streptavidin-biotin using a VECTASTATIN ABC kit. After one hour of incubation in 10% normal goat serum, the anti-amyloid β (Aβ) antibody was diluted with PBS to ten fold and incubated at 4° C. overnight. The following day, PBS rinsing, 1.5 hours of incubation with biotinylated anti-rabbit secondary antibody, PBS rinsing, and 1.5 hours of incubation with peroxidase-labeled streptavidin were conducted. The immunoreaction was visualized with DAB and specimens were prepared.
Immunoreactive Aβ-like granules in the hippocampus were counted under the microscope. The Aβ-like immunoreactive granule was observed as brown deposits in the hippocampus. The count was made for one section per individual.
On to `O=C1N=C2C=CC=CN2C12Cc1ccccc1C2` [Compound 1, spiro[imidazo[1,2-a]pyridin-2(3H)-one-3,2′-indan]], for which the “amyloid β deposition (overall conclusion)” value is recorded as “inhibits amyloid β deposition”.

The same data set, now with this note: hippocampus, one section per individual, oral 0.002, 0.01 and 0.1 mg/kg in drinking water for 2 months, FIG. 2.
On to `O=C1N=C2C=CC=CN2C12Cc1ccccc1C2` [Compound 1, spiro[imidazo[1,2-a]pyridin-2(3H)-one-3,2′-indan]], for which the “number of amyloid β-immunoreactive granules” value is “significantly (*) decreased”.

The same data set, now with this note: male, 8 months old, Compound 1 in drinking water at oral dosage of 0.002, 0.01 and 0.1 mg/kg/day for 2 months, vs tap water.
For `O=C1N=C2C=CC=CN2C12Cc1ccccc1C2` [Compound 1, spiro[imidazo[1,2-a]pyridin-2(3H)-one-3,2′-indan]], the “amyloid β-like immunoreactivity in the hippocampus” value is “reduced”.
